Where “and” joins values, the source holds several entries; their conditions need not be identical. Equal entries are not always repeated.
Experiments:
[1] = test system: collagen plus epinephrine induced pulmonary thromboembolism; experiment: Collagen-epinephrine induced pulmonary thromboembolism in mice; assay type: in vivo
Protocol: To assess the antithrombotic efficacy of compounds, mice were grouped into vehicle, aspirin and compound treated groups, and each group included ten animals. Pulmonary thromboembolism was induced by injecting a mixture of collagen (150 μg/ml) and adrenaline (50 μg/ml) into the tail vein to achieve final doses of collagen (1.5 mg/kg) and adrenaline (0.5 mg/kg) to induce hind limb paralysis or death.^11, 12 Number of test animals killed or paralyzed were evaluated (death/paralysis were employed as endpoint to evaluate antithrombotic agents). The percent protection was calculated by taking the ratio of number of test animals killed or paralyzed to that of total tested animals. Results have been reported as percentage protection, which represents protection against collagen and epinephrine induced thromboembolism and expressed as;
Percent Protection=[1−(Ptest/Pcontrol)]×100
Where, Ptest is the number of animals paralyzed/dead in test compound-treated group, and Pcontrol is the total number of animals paralyzed/dead in vehicle treated group. The percent protection refers to the number of animals in compound treated group that were prevented from paralysis/death.

[2] = test system: ferric chloride induced arterial thrombosis; experiment: FeCl3 induced carotid artery thrombosis in mice; assay type: in vivo; details: 1d 4 hr after oral administration, control 9.5±0.4 min
Protocol: Male Swiss albino mice were anesthetized byurethane (1.25 g/kg, i.p.). The carotid artery was carefully dissected and a pulsed Doppler Probe (LDF 100C, BioPac, USA) was placed around it to record the blood flow velocity and patency of the blood vessels. The carotid artery thrombosis was induced by FeCl3 as follows: a square (1×0.5 mm) of Whatman Chromatography paper was immersed in 10% FeCl3 solution for 5 min and placed on the carotid artery as described earlier. (Kurz K D, et al., Thromb Res 1990; 60(4):269-80; Surin W R et al J Pharmacol Toxicol Methods. 2010; 61(3):287-91) Thrombosis was monitored as the reduction in carotid artery blood flow. The time at which the blood-flow velocity was decreased to zero was recorded as the time to occlusion (TTO) of the carotid artery.

human platelets = experiment: Collagen induced platelet aggregation in human platelets (in vitro); assay type: cell-based; details: compound concentration 30 μM, n = 3; for inhibition at 30 µM: Homo sapiens, Platelet
[3] = Mus musculus, po, 1 h, read-out: Protection (%)

SMILES | inhibition in vivo at 30 µM, 30 µmol/kg [1, 3] | inhibition at 30 µM (human platelets) | other results
CC(=O)Oc1ccccc1C(=O)O [Aspirin, reference compound] | – | – | inhibition in vivo at 170 µM, 170 µmol/kg [1, 3]: 40%; Protection (%) ([1]; mice, Aspirin at 170 μm (text: 170 μM/kg)): 40 (at 170 μm) % and 40 (at %
COC(=O)[C@H](c1ccccc1Cl)N1CCc2sccc2C1 [Clopidogrel, reference compound] | – | – | time to occlusion (TTO) of carotid artery [2]: ≤ 23 ± 0.9 min
CC(C)(C)OC(=O)N1CC2CC(C1)CN(C(=O)[C@@H]1CCC(=O)N1Cc1ccccc1)C2 [Compound 1a, 7-(1-Benzyl-5-oxo-pyrrolidine-2-carbonyl)-3,7-diaza-bicyclo[3.3.1]nonane-3-carboxylic acid tert-butyl ester] | 40% | 6 ± 14% | –
CC(C)(C)OC(=O)N1CC2CC(C1)CN(C(=O)[C@@H]1CCC(=O)N1Cc1ccccc1Br)C2 [Compound 1b, 7-[1-(2-Bromo-benzyl)-5-oxo-pyrrolidine-2-carbonyl]-3,7-diaza-bicyclo[3.3.1]nonane-3-carboxylic acid tert-butyl ester] | 50% | – | Inhibition (%) of collagen induced platelet aggregation (human platelets): Ns
O=C([C@@H]1CCC(=O)N1Cc1ccccc1)N1CC2CC(CN(Cc3ccccc3)C2)C1 [Compound 1c, 1-Benzyl-5-(7-benzyl-3,7-diaza-bicyclo[3.3.1]nonane-3-carbonyl)-pyrrolidin-2-one] | 30% | 44 ± 13% | –
Cc1ccc(CN2C(=O)CC[C@H]2C(=O)N2CC3CC(CN(C(=O)OC(C)(C)C)C3)C2)cc1 [Compound 1e, 7-[1-(4-Methyl-benzyl)-5-oxo-pyrrolidine-2-carbonyl]-3,7-diaza-bicyclo[3.3.1]nonane-3-carboxylic acid tert-butyl ester] | 40% | 25 ± 9% | –
Cc1ccc(CN2C(=O)CC[C@H]2C(=O)N2CC3CC(CN(Cc4ccccc4)C3)C2)cc1 [Compound 1f, 5-(7-Benzyl-3,7-diaza-bicyclo[3.3.1]nonane-3-carbonyl)-1-(4-methyl-benzyl)-pyrrolidin-2-one] | 25% | 7 ± 7% | –
O=C([C@@H]1CCC(=O)N1Cc1c(Cl)cccc1Cl)N1CC2CC(CN(Cc3ccccc3)C2)C1 [Compound 1g, (5S)-5-(7-benzyl-3,7-diazabicyclo[3.3.1]nonane-3-carbonyl)-1-(2,6-dichlorobenzyl)pyrrolidin-2-one] | 40% | 57 to 86% | –
O=C([C@@H]1CCC(=O)N1Cc1ccc(Cl)cc1)N1CC2CC(CN(Cc3ccccc3)C2)C1 [Compound 1h] | 30% | 57 to 86% | –
Cc1ccc(S(=O)(=O)N2C(=O)CC[C@H]2C(=O)N2CC3CC(CN(Cc4ccccc4)C3)C2)cc1 [Compound 1i, (5S)-5-(7-benzyl-3,7-diazabicyclo[3.3.1]nonane-3-carbonyl)-1-tosylpyrrolidin-2-one] | 30% | 29 ± 1% | –
CC(C)(C)OC(=O)N1CC2CC(C1)CN(C(=O)[C@@H]1CCC(=O)N1Cc1ccc(C#N)cc1)C2 [Compound 1j, tert-butyl-7-((S)-1-(4-cyanobenzyl)-5-oxopyrrolidine-2-carbonyl)3,7diazabicyclo[3.3.1]nonane-3-carboxylate] | 55% | 11 ± 3% | –
CC(C)(C)OC(=O)N1CC2CC(C1)CN(C(=O)[C@@H]1CCC(=O)N1Cc1ccc(Cl)cc1)C2 [Compound 1k, tert-butyl 7-((S)-1-(4-chlorobenzyl)-5-oxopyrrolidine-2-carbonyl)-3,7-diazabicyclo [3.3.1]nonane-3-carboxylate] | 30% | 6 ± 11% | –
CC(C)(C)OC(=O)N1CC2CC(C1)CN(C(=O)[C@@H]1CCC(=O)N1Cc1c(Cl)cccc1Cl)C2 [Compound 1l, tert-butyl 7-((S)-1-(2,6-dichlorobenzyl)-5-oxopyrrolidine-2-carbonyl)-3,7-diazabicyclo [3.3.1]nonane-3-carboxylate] | 30% | 3 ± 3% | –
COc1ccc(CN2C(=O)CC[C@H]2C(=O)N2CC3CC(CN(C(=O)OC(C)(C)C)C3)C2)cc1 [Compound 1m, tert-butyl-7-((S)-1-(4-methoxybenzyl)-5-oxopyrrolidine-2-carbonyl)-3,7-diazabicyclo[3.3.1]nonane-3-carboxylate] | 45% | 10 ± 3% | –
O=C([C@@H]1CCC(=O)N1Cc1ccc(Br)cc1)N1CC2CC(CN(Cc3ccccc3)C2)C1 [Compound 1o, (5S)-5-(7-(4-benzyl)-3,7-diazabicyclo[3.3.1]nonane-3-carbonyl)-1-(4-bromobenzyl)pyrrolidin-2-one] | 40% | 57 to 86% | –
COc1ccc(CN2C(=O)CC[C@H]2C(=O)N2CC3CC(CN(Cc4ccccc4)C3)C2)cc1 [Compound 1p] | 30% | 10 ± 4% | –
O=C(c1ccccc1)N1CC2CC(C1)CN(C(=O)[C@@H]1CCC(=O)N1Cc1ccccc1Br)C2 [Compound 1q, 5-(7-Benzoyl-3,7-diaza-bicyclo[3.3.1]nonane-3-carbonyl)-1-(2-bromo-benzyl)-pyrrolidin-2-one] | 60% | 25.6 ± 3.55% | –
Cc1ccc(S(=O)(=O)N2CC3CC(CN(C(=O)[C@@H]4CCC(=O)N4Cc4ccccc4Br)C3)C2)cc1 [Compound 1r, 1-(2-Bromo-benzyl)-5-[7-(toluene-4-sulphonyl)-3,7-diaza-bicyclo[3.3.1]nonane-3-carbonyl]-pyrrolidin-2-one] | 55% | 16.8 ± 5.66% | –
Cc1ccc(CN2C(=O)CC[C@H]2C(=O)N2CC3CC(CN(C(=O)c4ccccc4)C3)C2)cc1 [Compound 1s, 5-(7-Benzoyl-3,7-diaza-bicyclo[3.3.1]nonane-3-carbonyl)-1-(4-methyl-benzyl)-pyrrolidin-2-one] | 40% | 20.5 ± 7.5% | –
Cc1ccc(CN2C(=O)CC[C@H]2C(=O)N2CC3CC(C2)CN(S(=O)(=O)c2ccc(C)cc2)C3)cc1 [Compound 1t, 1-(4-Methyl-benzyl)-5-[7-(toluene-4-sulphonyl)-3,7-diaza-bicyclo[3.3.1]nonane-3-carbonyl]-pyrrolidin-2-one] | 40% | 37.5 ± 10.5% | –
Cc1ccc(CN2C(=O)CC[C@H]2C(=O)N2CC3CC(CN(Cc4ccccc4Br)C3)C2)cc1 [Compound 1u, (5S)-5-(2-bromobenzyl-3,7-diazabicyclo[3.3.1]nonane-3-carbonyl)-1-(4-methylbenzyl)pyrrolidin-2-one] | 30% | 57 to 86% | –
Cc1ccc(CN2C(=O)CC[C@H]2C(=O)N2CC3CC(CN(Cc4ccc(Br)cc4)C3)C2)cc1 [Compound 1v, (5S)-5-(7-(4-bromobenzyl)-3,7-diazabicyclo[3.3.1]nonane-3-carbonyl)-1-(4-methylbenzyl)pyrrolidin-2-one] | 50% | 57 to 86% | –
Cc1ccc(CN2C(=O)CC[C@H]2C(=O)N2CC3CC(CN(Cc4ccc(Cl)cc4)C3)C2)cc1 [Compound 1w, (5S)-5-(7-(4-chlorobenzyl)-3,7-diazabicyclo[3.3.1]nonane-3-carbonyl)-1-(4-methylbenzyl)pyrrolidin-2-one] | 35% | 57 to 86% | –
CC(C)[C@H](NC(=O)OCc1ccccc1)C(=O)N1CC2CC(CN(Cc3ccccc3)C2)C1 [Compound 1x, Benzyl(2S)-1-(7-benzyl-3,7-diazabicyclo[3.3.1]nonan-3-yl)-3-methyl-1-oxobutan-2-yl carbamate] | 20% | 18 ± 4% | –
O=C(N[C@@H](Cc1ccccc1)C(=O)N1CC2CC(CN(Cc3ccccc3)C2)C1)OCc1ccccc1 [Compound 1y, Benzyl(2S)-1-(7-benzyl-3,7-diazabicyclo[3.3.1]nonan-3-yl)-1-oxo-3-phenylpropan-2-yl carbamate] | 55% | 22 ± 5% | –
CC(C)C[C@H](NC(=O)OCc1ccccc1)C(=O)N1CC2CC(CN(Cc3ccccc3)C2)C1 [Compound 1z, Benzyl(2S)-1-(7-benzyl-3,7-diazabicyclo[3.3.1]nonan-3-yl)-4-methyl-1-oxopentan-2-ylcarbamate] | 40% | 12 ± 10% | –
